Source: ChEMBL document CHEMBL1128018, “Structure-activity relationships of the non-peptidyl growth hormone secretagogue L-692,429” (1994)

Experiments:
Rattus norvegicus [1] = species on record: Rattus norvegicus; assay: Growth hormone release from rat pituitary cells; type: functional; settings: Pituitary gland cell, read-out: ED50 (the source's name)
Rattus norvegicus [2] = species on record: Rattus norvegicus; assay: Growth hormone release was determined in rat pituitary cells at 1 uM; A - weakly active; type: functional, cell-based; settings: Pituitary gland cell

SMILES | EC50 (Rattus norvegicus [1]) | Growth hormone release activity call at 1 uM (Rattus norvegicus [2])
C[C@@H](O)CNC(C)(C)C(=O)N[C@@H]1CCc2ccccc2N(Cc2ccc(-c3ccccc3-c3nn[nH]n3)cc2)C1=O | 300 nM | –
CC(C)(CC(=O)N[C@@H]1CCc2ccccc2N(Cc2ccc(-c3ccccc3-c3nn[nH]n3)cc2)C1=O)NC[C@H](O)[C@@H](O)CO | 40 nM | –
CC(C)(CC(=O)N[C@@H]1CCc2ccccc2N(Cc2ccc(-c3ccccc3-c3nn[nH]n3)cc2)C1=O)NC[C@H](O)c1ccccc1 | 1000 nM | –
C[C@@H](F)CNC(C)(C)CC(=O)N[C@@H]1CCc2ccccc2N(Cc2ccc(-c3ccccc3-c3nn[nH]n3)cc2)C1=O | 90 nM | –
C[C@H](O)CNC(C)(C)C(=O)N[C@@H]1CCc2ccccc2N(Cc2ccc(-c3ccccc3-c3nn[nH]n3)cc2)C1=O | 700 nM | –
CC(C)(N)CC(=O)N[C@@H]1CCc2ccccc2N(Cc2ccc(-c3ccccc3-c3nn[nH]n3)cc2)C1=O | 60 nM | –
CC(C)(CC(=O)N[C@@H]1CCc2ccccc2N(Cc2ccc(-c3ccccc3-c3nn[nH]n3)cc2)C1=O)NCCO | 30 nM | –
CC(C)(N)C(=O)N[C@@H]1CCc2ccccc2N(Cc2ccc(-c3ccccc3-c3nn[nH]n3)cc2)C1=O | 30 nM | –
C[C@H](O)CNC(C)(C)CC(=O)N[C@@H]1CCc2ccccc2N(Cc2ccc(-c3ccccc3-c3nn[nH]n3)cc2)C1=O | 7 nM | –
C[C@H](O)CCNC(C)(C)C(=O)N[C@@H]1CCc2ccccc2N(Cc2ccc(-c3ccccc3-c3nn[nH]n3)cc2)C1=O | 50 nM | –
CO[C@H](C)CNC(C)(C)CC(=O)N[C@@H]1CCc2ccccc2N(Cc2ccc(-c3ccccc3-c3nn[nH]n3)cc2)C1=O | 20 nM | –
C[C@@H](O)CCNC(C)(C)C(=O)N[C@@H]1CCc2ccccc2N(Cc2ccc(-c3ccccc3-c3nn[nH]n3)cc2)C1=O | 100 nM | –
CC(C)[C@@H](O)CNC(C)(C)CC(=O)N[C@@H]1CCc2ccccc2N(Cc2ccc(-c3ccccc3-c3nn[nH]n3)cc2)C1=O | 200 nM | –
CC(C)(CC(=O)N[C@@H]1CCc2ccccc2N(Cc2ccc(-c3ccccc3-c3nn[nH]n3)cc2)C1=O)NCC(=O)O | – | Weak activity
C[C@H](CNC(C)(C)CC(=O)N[C@@H]1CCc2ccccc2N(Cc2ccc(-c3ccccc3-c3nn[nH]n3)cc2)C1=O)OCc1ccccc1 | – | Weak activity
CCCNC(C)(C)CC(=O)N[C@@H]1CCc2ccccc2N(Cc2ccc(-c3ccccc3-c3nn[nH]n3)cc2)C1=O | 50 nM | –
CC(C)(CC(=O)N[C@@H]1CCc2ccccc2N(Cc2ccc(-c3ccccc3-c3nn[nH]n3)cc2)C1=O)NC[C@H](O)CO | 10 nM | –
CCOC(=O)CNC(C)(C)CC(=O)N[C@@H]1CCc2ccccc2N(Cc2ccc(-c3ccccc3-c3nn[nH]n3)cc2)C1=O | 56 nM | –
CC(C)(O)CNC(C)(C)CC(=O)N[C@@H]1CCc2ccccc2N(Cc2ccc(-c3ccccc3-c3nn[nH]n3)cc2)C1=O | 10 nM | –
CC(C)(CC(=O)N[C@@H]1CCc2ccccc2N(Cc2ccc(-c3ccccc3-c3nn[nH]n3)cc2)C1=O)NCCOCc1ccccc1 | – | Weak activity
C[C@@H](O)CCNC(C)(C)CC(=O)N[C@@H]1CCc2ccccc2N(Cc2ccc(-c3ccccc3-c3nn[nH]n3)cc2)C1=O | 10 nM | –
C[C@@H](O)CNC(C)(C)CC(=O)N[C@@H]1CCc2ccccc2N(Cc2ccc(-c3ccccc3-c3nn[nH]n3)cc2)C1=O [L-692585] | 3 nM | –
CC(=O)O[C@@H](C)CNC(C)(C)CC(=O)N[C@@H]1CCc2ccccc2N(Cc2ccc(-c3ccccc3-c3nn[nH]n3)cc2)C1=O | 200 nM | –
CC(C)[C@H](O)CNC(C)(C)CC(=O)N[C@@H]1CCc2ccccc2N(Cc2ccc(-c3ccccc3-c3nn[nH]n3)cc2)C1=O | 1000 nM | –
C[C@H](O)CCNC(C)(C)CC(=O)N[C@@H]1CCc2ccccc2N(Cc2ccc(-c3ccccc3-c3nn[nH]n3)cc2)C1=O | – | Weak activity
